Test results published in US11344564B1, “Method of treatment based on reduced monoamine oxidase a activity” (Lennham Pharmaceuticals, Inc., priority 2021, dated 2022).

How the values were obtained:
human MAO-A = target: T1, human MAO-A (Homo sapiens, UniProt P21397); assay: in vitro metabolism of psilocin by human MAO-A; format: in vitro ADME; settings: test compound 0.2 and 2 μM; protein 0.03, 0.1, 0.3 and 1 mg/ml; incubation 0-30 min, 37° C., pH 7.4, no cofactors (FIGS. 1A & 1B)
T1 sequence (P21397 1-527): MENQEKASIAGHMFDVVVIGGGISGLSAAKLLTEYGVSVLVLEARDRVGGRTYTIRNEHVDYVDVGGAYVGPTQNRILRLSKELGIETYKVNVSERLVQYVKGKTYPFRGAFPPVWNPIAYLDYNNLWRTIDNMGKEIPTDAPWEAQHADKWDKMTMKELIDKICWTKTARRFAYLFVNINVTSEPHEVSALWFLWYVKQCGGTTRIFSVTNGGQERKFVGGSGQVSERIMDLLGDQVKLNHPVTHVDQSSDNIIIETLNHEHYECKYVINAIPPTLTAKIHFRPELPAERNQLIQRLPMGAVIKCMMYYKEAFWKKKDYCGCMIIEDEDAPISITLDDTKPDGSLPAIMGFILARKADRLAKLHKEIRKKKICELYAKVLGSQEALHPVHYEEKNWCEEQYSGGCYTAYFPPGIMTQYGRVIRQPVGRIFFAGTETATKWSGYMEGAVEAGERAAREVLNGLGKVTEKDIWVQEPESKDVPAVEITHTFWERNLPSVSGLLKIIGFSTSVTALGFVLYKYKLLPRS

human MAO-B = target: T2, human MAO-B (Homo sapiens, UniProt P27338); assay: in vitro metabolism of psilocin by human MAO-B; format: in vitro ADME; settings: test compound 0.2 and 2 μM; protein 0.03, 0.1, 0.3 and 1 mg/ml; incubation 0-30 min, 37° C., pH 7.4, no cofactors (FIGS. 1C & 1D)
T2 sequence (P27338 1-520): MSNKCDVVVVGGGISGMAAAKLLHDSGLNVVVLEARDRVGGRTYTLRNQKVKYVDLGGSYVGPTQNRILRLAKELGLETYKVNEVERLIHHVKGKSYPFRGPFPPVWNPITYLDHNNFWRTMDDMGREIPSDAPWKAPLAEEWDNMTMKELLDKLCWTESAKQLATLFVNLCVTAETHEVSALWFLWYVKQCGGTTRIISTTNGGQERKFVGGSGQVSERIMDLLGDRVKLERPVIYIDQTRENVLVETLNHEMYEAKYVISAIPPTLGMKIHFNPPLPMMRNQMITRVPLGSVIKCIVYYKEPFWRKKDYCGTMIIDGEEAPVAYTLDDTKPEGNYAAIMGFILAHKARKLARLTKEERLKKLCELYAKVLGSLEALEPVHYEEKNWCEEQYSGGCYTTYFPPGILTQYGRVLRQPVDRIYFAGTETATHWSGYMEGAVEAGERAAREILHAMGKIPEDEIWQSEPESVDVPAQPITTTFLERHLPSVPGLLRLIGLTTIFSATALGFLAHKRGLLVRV

CN(C)CCc1c[nH]c2cccc(O)c12 [psilocin, 4-hydroxy-N,N-dimethyltryptamine]
metabolism by human MAO-A (human MAO-A): is metabolized by human MAO-A | metabolism by human MAO-B (human MAO-B): not human MAO-B
